Measurements published in ChEMBL document CHEMBL3091347, “Comparison of Multiple Linear Regressions and Neural Networks based QSAR models for the design of new antitubercular compounds” (Eur J Med Chem, 2013).
Values after ≈ are worked out from the molar mass of the structure shown.

Key:
[1] = tested on: Mycobacterium tuberculosis; assay: Antitubercular activity against Mycobacterium tuberculosis; format: functional; conditions: for MIC: Mycobacterium tuberculosis
[2] = Lipophilicity, log P of the compound; conditions: octanol/water
[3] = tested on: Mycobacterium tuberculosis; assay: Antitubercular activity against Mycobacterium tuberculosis H37Rv; format: functional; conditions: for MIC: Mycobacterium tuberculosis, H37Rv

Row | SMILES | log(1/MIC) [1] | MIC [1] | logP ([2]; logP) | log(1/MIC) [3] | MIC [3] | logP [2]
1 | NNC(=O)c1ccc([N+](=O)[O-])o1 | 0.1 | 0.8 µg/mL (≈ 4.68 µM) | -0.396 |  |  | 
2 | NNC(=O)c1ccccc1[N+](=O)[O-] | -2.48 | 300 µg/mL (≈ 1660 µM) | -1.1 |  |  | 
3 | NNC(=O)c1c[nH]cn1 | -0.9 | 8 µg/mL (≈ 63.4 µM) | -2.85 |  |  | 
4 | NNC(=O)c1ccnc2ccccc12 | -1.9 | 80 µg/mL (≈ 427 µM) | -1.35 |  |  | 
5 | NNC(=O)c1cccc([N+](=O)[O-])c1 | 0.22 | 0.6 µg/mL (≈ 3.31 µM) | -1.1 |  |  | 
6 | CN(C)C(=O)N1CCC(C(=O)NN)CC1 | -2.78 | 600 µg/mL (≈ 2800 µM) | -3.12 |  |  | 
7 | CC(=O)NNC(=O)c1ccncc1 | -1.18 | 15 µg/mL (≈ 83.7 µM) | -3.45 |  |  | 
8 | CC(=O)N(Nc1ccccc1)c1ccccc1 | -2 | 100 µg/mL (≈ 442 µM) | 1.31 |  |  | 
9 | N/C(COc1ccc(Cl)cc1)=N\NC(=O)c1ccncc1 |  |  | 1.34 | -0.494 | 3.12 µg/mL (≈ 10.2 µM) | 
10 | O=C(NNC(=O)c1ccco1)c1ccco1 | -2 | 100 µg/mL (≈ 454 µM) | 1.38 |  |  | 
11 | Cc1ccccc1OC/C(N)=N/NC(=O)c1ccncc1 |  |  | 1.27 | -1.097 | 12.5 µg/mL (≈ 44 µM) | 
12 | CCCCCCCCC(=O)NNC(=O)c1ccncc1 |  |  | 2.22 | 1.602 | 0.03 µg/mL (≈ 0.108 µM) | 
13 | Cc1cccc(OC/C(N)=N/NC(=O)c2ccncc2)c1 |  |  | 1.27 | -0.494 | 3.12 µg/mL (≈ 11 µM) | 
14 | Cc1ccc(OC/C(N)=N/NC(=O)c2ccncc2)cc1 |  |  | 1.27 | -0.796 | 6.25 µg/mL (≈ 22 µM) | 
15 | N/C(COc1cccc(Cl)c1)=N\NC(=O)c1ccncc1 |  |  | 1.34 | -0.494 | 3.12 µg/mL (≈ 10.2 µM) | 
16 | NNC(=O)CN1CSC(N)=N1 | -2.48 | 300 µg/mL (≈ 1710 µM) |  |  |  | -4.033
17 | C/C(=N\NC(=O)c1ccncc1)c1cccc(CN2CCCCC2)c1O | -0.21 | 1.62 µg/mL (≈ 4.6 µM) | 2.55 |  |  | 
18 | C/C(=N\NC(=O)c1ccncc1)c1cccc(CN2CCN(C)CC2)c1O | -0.52 | 3.28 µg/mL (≈ 8.93 µM) | 1.99 |  |  | 
19 | CC(C)=NNC(=O)c1cccs1 | 0.35 | 0.45 µg/mL (≈ 2.47 µM) | -0.404 |  |  | 
20 | CN(C)NC(=O)c1ccco1 | -2.48 | 300 µg/mL (≈ 1950 µM) | 0.653 |  |  | 
21 | CC(C)/C=N\NC(=O)c1ccco1 | 0.82 | 0.15 µg/mL (≈ 0.832 µM) | 1.19 |  |  | 

Row | SMILES | log(1/MIC) [1] | MIC [1] | logP ([2]; logP) | log(1/MIC) [3] | MIC [3] | logP [2]
22 | O=C(N/N=C/C(O)C(O)C(O)C(O)CO)c1ccco1 (stereo unspecified) | -0.78 | 6 µg/mL (≈ 20.8 µM) | -3.86 |  |  | 
23 | NNC(=O)C1CCCO1 (stereo unspecified) | 0.52 | 0.3 µg/mL (≈ 2.31 µM) | -2.12 |  |  | 
24 | NNC(=O)c1cccs1 | -0.9 | 8 µg/mL (≈ 56.3 µM) | -1.2 |  |  | 
25 | NNS(=O)(=O)c1ccc(N)cc1 | -1.4 | 25 µg/mL (≈ 134 µM) | -1.85 |  |  | 
26 | CC(=O)NNC(C)=O | -2.78 | 600 µg/mL (≈ 5170 µM) | -3.91 |  |  | 
27 | CON1C(=O)C(=O)N1c1ccc([N+](=O)[O-])cc1 | 1.52 | 0.03 µg/mL (≈ 0.126 µM) | 0.963 |  |  | 
28 | Nc1ccc(S(=O)(=O)NNC(=O)c2ccncc2)cc1 | -2.78 | 600 µg/mL (≈ 2050 µM) | -2.51 |  |  | 
29 | Cc1ncnc(O)c1C(=O)NN | -2.6 | 400 µg/mL (≈ 2380 µM) | -2.88 |  |  | 
30 | N/N=C/C(O)C(O)C(O)C(CC(=O)c1ccncc1)C(=O)c1ccncc1 (stereo unspecified) | 1.4 | 0.04 µg/mL (≈ 0.107 µM) |  |  |  | -5.16
31 | CC(C)Cc1cc(C(=O)NN)ccn1 | -1.94 | 87 µg/mL (≈ 450 µM) | -0.216 |  |  | 
32 | CCOc1cc(C(=O)NN)ccn1 | -1.91 | 81.5 µg/mL (≈ 450 µM) | -1.5 |  |  | 
33 | CC(=O)Nc1cc(C(=O)NN)ccn1 | -2.62 | 418 µg/mL (≈ 2150 µM) | -2.93 |  |  | 
34 | CCN(CC)c1cc(C(=O)NN)ccn1 | -2.17 | 149 µg/mL (≈ 717 µM) | -0.546 |  |  | 
35 | NNC(=O)c1ccnc(Cl)c1 | -1.83 | 67.3 µg/mL (≈ 392 µM) | -1.61 |  |  | 
36 | NNC(=O)c1ccnc([N+](=O)[O-])c1 | -1.83 | 67.6 µg/mL (≈ 371 µM) | -2.21 |  |  | 
37 | NNC(=O)c1ccnc(-c2ccccc2)c1 | -1.03 | 10.7 µg/mL (≈ 50 µM) | -0.634 |  |  | 
38 | CC(O)(NNC(=O)c1ccncc1)C(=O)O (stereo unspecified) | 1.22 | 0.06 µg/mL (≈ 0.266 µM) | -2.78 |  |  | 
39 | O=C(NNC(O)C(Cl)(Cl)Cl)c1ccncc1 (stereo unspecified) | 1.4 | 0.04 µg/mL (≈ 0.141 µM) |  |  |  | -1.22
40 | CC(C)(C#N)NNC(=O)c1ccncc1 | 1.22 | 0.06 µg/mL (≈ 0.294 µM) | -0.976 |  |  | 
41 | CCC(CC)=NNC(=O)c1ccncc1 | 1.7 | 0.02 µg/mL (≈ 0.0974 µM) | -0.469 |  |  | 
42 | CCCCC/C(C)=N/NC(=O)c1ccncc1 | 1.52 | 0.03 µg/mL (≈ 0.129 µM) | 0.589 |  |  | 

Row | SMILES | log(1/MIC) [1] | MIC [1] | logP ([2]; logP) | log(1/MIC) [3] | MIC [3] | logP [2]
43 | CCN(CC)c1ccc(/C=N/NC(=O)c2ccncc2)cc1 | 0.22 | 0.6 µg/mL (≈ 2.02 µM) | 2.53 |  |  | 
44 | CCN(CC)CCN(C)c1ccc(/C=N/NC(=O)c2ccncc2)cc1 | 1.1 | 0.08 µg/mL (≈ 0.226 µM) | 2.43 |  |  | 
45 | N/N=C/C(CC(=O)c1ccncc1)C(=O)c1ccncc1 (stereo unspecified) | 0.82 | 0.15 µg/mL (≈ 0.531 µM) | -2.83 |  |  | 
46 | CC(C)/C=N\NC(=O)c1ccncc1 | 1 | 0.1 µg/mL (≈ 0.523 µM) | -0.998 |  |  | 
47 | CC(C)CNNC(=O)c1ccncc1 | 1 | 0.1 µg/mL (≈ 0.517 µM) | -0.719 |  |  | 
48 | CCC(C)NNC(=O)c1ccncc1 (stereo unspecified) | 0.4 | 0.4 µg/mL (≈ 2.07 µM) | -0.719 |  |  | 
49 | NNC(=O)c1ccccn1 | 0.82 | 0.15 µg/mL (≈ 1.09 µM) | -1.95 |  |  | 
50 | NNC(=O)c1ccnc(F)c1 | -1.61 | 40.3 µg/mL (≈ 260 µM) | -2.18 |  |  | 
51 | NNC(=O)c1c[nH]c(S)n1 | -2.4 | 250 µg/mL (≈ 1580 µM) | -2.26 |  |  | 
52 | Cc1cnccc1C(=O)NN | -2.3 | 200 µg/mL (≈ 1320 µM) | -1.67 |  |  | 
53 | NNC(=O)Cc1ccccc1 | -1.08 | 12 µg/mL (≈ 79.9 µM) | -1.22 |  |  | 
54 | NNC(=O)c1ccco1 | 1.22 | 0.06 µg/mL (≈ 0.476 µM) | -0.139 |  |  | 
55 | NNC(=O)c1ccnc(Br)c1 | -2.12 | 133 µg/mL (≈ 616 µM) | -1.46 |  |  | 
56 | C/C=N/NC(=O)c1ccncc1 | 1.4 | 0.04 µg/mL (≈ 0.245 µM) | -1.93 |  |  | 
57 | CN1CCC(C(=O)NN)CC1 | -2.78 | 600 µg/mL (≈ 3820 µM) | -2.49 |  |  | 
58 | O=C(NO)c1ccncc1 | -2.08 | 120 µg/mL (≈ 869 µM) | -2.65 |  |  | 
59 | CC(C)=NNC(=O)c1ccncc1 | 1.7 | 0.02 µg/mL (≈ 0.113 µM) | -1.53 |  |  | 
60 | O=C(NN=C1CCCCC1)c1ccncc1 | 2.22 | 0.01 µg/mL (≈ 0.046 µM) | -0.334 |  |  | 
61 | NNC(=O)c1ccccc1 [BENZOIC ACID HYDRAZIDE] | 0.22 | 0.6 µg/mL (≈ 4.41 µM) |  |  |  | -0.845
62 | CC(C)NNC(=O)c1ccncc1 [IPRONIAZID] | 0.4 | 0.4 µg/mL (≈ 2.23 µM) |  |  |  | -1.248
